# Measurements reported in patent US5585234A, “Treatment of infertile sperm in vitro with thymosin α1 to enhance penetration of mammalian ova” (The George Washington University Medical Center, priority 1994, dated 1996).
# Ends that are not written are not given here.
# Tests used:
# Format in all cases: cell-based
# human sperm [1] = assay: Assessment of acrosomal status (triple stain) of human sperm; settings: for Effect on capacitation and acrosome reaction of human sperm cells: 0.5 micrograms/microliter, 5-6 hours, with or without ionophore; for Acrosome reacted sperm (%) (Mean ± SD): thymosins 0.5 μg/100 μl
# Protocol: Motile sperm were collected from fertile men by the swim up procedure as set forth in Naz et al., referenced above. Good quality sperm samples, i.e., (5×10^6 motile sperm per milliliter), greater than 75% motility, +3 to +4 forward progression on a scale of 0 to +5 were incubated with Tα1 or Tβ4 or anti-Tα1 antibodies or anti-Tβ4 antibodies. The controls were treated with the same amount of normal rabbit serum, anti-KLH antibodies, anti-HGP 30 antibodies or PBS-BSA as previously described. After incubation, the spermatozoa were centrifuged, washed in PBS and divided into two aliquots. One aliquot was induced to acrosome react with calcium ionophore (Calcium ionophore A23187 (Sigma)) and incubated with sperm suspension for one hour. The other aliquot was allowed to spontaneously acrosome react without treating with calcium ionophore. Calcium ionophore treatment was carried out to induce acrosome reaction of the capacitated sperm. The acrosomal status was assessed using the triple stain procedure described by Jager et al., Arch. Androl., 12:53-58 (1984). The sperm were washed twice in PBS and then incubated at 37° C. for fifteen minutes with 2% Trypan blue (Sigma 1:1 v/v) in PBS. After incubation, the sperm were washed twice, fixed in three percent glutaraldehyde, 0.1M cacodylate buffer for sixty minutes and then twice washed again in PBS. A drop of this suspension was placed on a glass slide and allowed to air dry overnight. The dried slide was stained with 0.8% Bismark Brown (Sigma) in deionized water (pH 1.8 with 2N HCl), rinsed in deionized water and stained for 45 minutes at room temperature in 0.8% Rose Bengal (Sigma) in 0.1M cacodylate buffer at pH 6.0. The slides were again washed in deionized water, dehydrated in an alcohol series, cleared in xylene and mounted with permount and a coverslip. A total of 200-500 sperm per sample were evaluated and recorded as either alive or dead. The alive sperm were further evaluated as acrosome-intact or acrosome-non-intact (reacted) sperm. The experiments were repeated 3-5 times using sperm of at least three different fertile donors.
# human sperm [2] = assay: Assessment of acrosin distribution (BAPNA acrosin activity in cells and supernatant); settings: for Effect on acrosin distribution vs PBS-BSA treated sperm: peptide 0.5 micrograms/100 microliters, with or without ionophore; for Acrosin activity, cells (Mean ± SD) / Acrosin activity, supernatant (Mean ± SD): thymosins 0.5 μg/100 μl
# Protocol: After incubation with the thymosin peptides or the anti-thymosin antibodies or control antibodies or PBS-BSA and with or without treating with calcium ionophore A23187 for one hour as described above, the sperm cells were centrifuged and the acrosin activity determined in the supernatant and cells by the method of Kennedy et al., J. Androl., 10:21-27 (1989). Ninety microliters of the supernatant or the pelleted sperm cells suspended in 90 microliters of PBS were mixed with one milliliter of the reaction mixture. The reaction mixture comprises one milligram per milliliter of N-benzoyl-dl-arginine-P-nitraniline (BAPNA) hydrochloride in 0.055M HEPES buffer, 0.055M NaCl, 10% v/v (dimethylsulfoxide), 0.1% v/v TRITON X-100 (t-Octylphenoxypolyethoxyethanol). The solution then was incubated for three hours at room temperature. The reaction was stopped by the addition of 100 microliters of 0.5M benzamidine and the absorbance measured at 405 nanometers using a Beckman spectrophotometer. Acrosin activity was expressed as μIU/10^6 spermatozoa. The daily variability of the assay was normalized using a cryopreserved partially-purified human acrosin extract. The preparation of such extracts is taught by Naz et al., J. Cell Sci., 102:487-494 (1992).
# human sperm [3] = assay: Sperm motion analysis (computerized semen analyzer); settings: for Effect on motility characteristics (velocity, ALH, beat frequency) / Effect on the percentage of motile sperm cells: peptide 0.5 micrograms per hundred microliters; for ALH (amplitude of lateral head displacement) (Mean ± S.D.) / Beat Frequency (Mean ± S.D.) / Linearity (Mean ± S.D.) / Percent Motility / Velocity (Mean ± S.D.): thymosins 0.5 μg/100 μl, 5 to 6 hours
# Protocol: After incubation with thymosin peptides or their antibodies for 5 to 6 hours as described above, an aliquot (7 microliters) of the sperm suspension was placed into a Makler chamber (Sefi Medical Instruments, Israel) and the sperm motion characteristics measured using a computerized semen analyzer (Cell Soft Cryo Resources, N.Y.). The parameter settings were 30 frames analyzed at an image frequency of 30 Hz, 3 frames minimum sampling for motility, 15 frames minimum sampling for both velocity and amplitude of the lateral head movement ("ALH") measurements, 10 micrometers per second threshold velocity, minimum linearity of 2.5 for ALH measurements and a cell size range of 4-40 pixels with a magnification calibration of 0.688 micrometers per pixel.
# human sperm [4] = assay: Human sperm penetration assay of zona-free hamster oocytes (SPA); settings: for Ova penetrated, % of control (mean ± SD): 5-6 hours, sperm of fertile men
# Protocol: Human sperm penetration assay of zona-free-hamster oocytes (SPA) was performed as described in Naz et al., J. Cell Sci., 102:487-494 (1992). Superovulation was induced in adult female golden hamsters by intraperitoneal injections of 30 IU eCG (pregnant mare serum gonadotropin)(Sigma Chemical Co., St. Louis, Mo.) on day 1 of the cycle. After 55-72 hours, 20 IU hCG (human chorionic gonadotropin) (Sigma) were administered intraperitoneally. 15-17 hours later the animals were sacrificed and the mature unfertilized ova were collected from the oviducts. The ova were separated from the surrounding cumulus cells by incubation with 0.2% hyaluronidase in Biggers, Witten and Wittingham (BWW) medium and from the zonae pellucida by treatment with 0.1% pancreatic trypsin in BWW. The zona-free ova were twice washed in BWW and placed in the center of a tissue culture dish.
# Semen from a fertile person was liquified for 15-30 minutes at 37° C. and the swim-up sperm population was collected. Collection techniques are described in Naz et al., J. Cell Sci., 99:157-165 (1991). The sperm cells from the swim-up were washed with BWW supplemented with 1% BSA (Sigma Chemical Co.) adjusted to 5-10×10^6 motile sperm per milliliter and then allowed to incubate for 5-6 hours at 37° C. ([…]) or polyclonal antisera elicited in response to those immunogens (10-20 microliters of antiserum/100 microliters of sperm suspension) or the same amount of control antibodies (normal rabbit serum, anti-KLH antibodies or anti-HGP-30 antibodies) or the equivalent volume of PBS containing 0.5% BSA (PBS/BSA). After incubation the sperm were washed to remove the unreacted thymosin or anti-thymosin antibody and co-incubated with the zona-denuded hamster oocytes (30-50 eggs/treatment in each assay) for three to four hours. The oocytes were removed, thoroughly washed, fixed with 3% […] and stained with acetocarmine solution. Sperm penetration was determined by the presence of a swollen spermhead with a discernable tail in the cytoplasm of the ovum. Motility of sperm before and after incubation with ova was recorded. The assays were repeated at least three to eight times using different fertile donors and each sample tested with at least 82-480 oocytes.
# The percentage of ova penetrated was calculated according to the following formula; [formula]
# [5] = peptide 0.1 μg/100 μl sperm suspension
# [6] = peptide 0.5 μg/100 μl sperm suspension
# [7] = peptide 2.0 μg/100 μl sperm suspension
# [8] = peptide 10.0 μg/100 μl sperm suspension
substance,measurement,setting,value
"thymosin-α1 (SDAAVDTSSEITTKDLKEKKEVVEEAEN; not fully specified; ends and bridges not checked; UniProt P06454 2-29, looked up) [Tα1, Thymus factor peptide; available from Alpha 1 Biomedicals]",Effect on capacitation and acrosome reaction of human sperm cells,human sperm [1],significantly enhanced capacitation and acrosome reaction
same,Acrosome reacted sperm (%) (Mean ± SD),human sperm [1]; with ionophore treatment,69.2 ± 3.6%
same,Acrosome reacted sperm (%) (Mean ± SD),human sperm [1]; without ionophore treatment,18.5 ± 3.5%
same,Effect on acrosin distribution vs PBS-BSA treated sperm,human sperm [2],significantly higher quantity of acrosin concentration released in the supernatant and a lower quantity of acrosin concentration in the sperm cells
same,"Acrosin activity, cells (Mean ± SD)",human sperm [2]; with ionophore treatment,30.6 ± 7.2 μIU/10^6 spermatozoa
same,"Acrosin activity, supernatant (Mean ± SD)",human sperm [2]; with ionophore treatment,68.2 ± 16.6 μIU/10^6 spermatozoa
same,"Acrosin activity, cells (Mean ± SD)",human sperm [2]; without ionophore treatment,64.5 ± 6.4 μIU/10^6 spermatozoa
same,"Acrosin activity, supernatant (Mean ± SD)",human sperm [2]; without ionophore treatment,27.5 ± 13.4 μIU/10^6 spermatozoa
same,"Effect on motility characteristics (velocity, ALH, beat frequency)",human sperm [3],"significantly affected the velocity, ALH and beat frequency"
same,Effect on the percentage of motile sperm cells,human sperm [3],No effect
same,ALH (amplitude of lateral head displacement) (Mean ± S.D.),human sperm [3],4.0 ± 0.3
same,Beat Frequency (Mean ± S.D.),human sperm [3],13.7 ± 0.6
same,Linearity (Mean ± S.D.),human sperm [3],3.9 ± 0.6
same,Percent Motility,human sperm [3],80.3 ± 6.2%
same,Velocity (Mean ± S.D.),human sperm [3],61.1 ± 3.0
same,Fold increase of percentage of ova penetrated compared to PBS-BSA-treated control sperm,"human sperm [4]; 0.05 to 0.5 μg Tα1/100 μl sperm suspension, P<0.001",up to 2.6 fold
same,"Ova penetrated, % of control (mean ± SD)",human sperm [4]; peptide 0.01 μg/100 μl sperm suspension,120.3 ± 11.6%
same,"Ova penetrated, % of control (mean ± SD)",human sperm [4]; peptide 0.05 μg/100 μl sperm suspension,268.2 ± 26.4%
same,"Ova penetrated, % of control (mean ± SD)",human sperm [4]; [5],251.0 ± 36.3%
same,"Ova penetrated, % of control (mean ± SD)",human sperm [4]; [6],204.0 ± 13.9%
same,"Ova penetrated, % of control (mean ± SD)",human sperm [4]; [7],100.5 ± 0.7%
same,"Ova penetrated, % of control (mean ± SD)",human sperm [4]; [8],102.2 ± 18.9%
thymosin-β4 [Tβ4],Effect on capacitation and acrosome reaction of human sperm cells,human sperm [1],did not exhibit a significant effect
same,Acrosome reacted sperm (%) (Mean ± SD),human sperm [1]; with ionophore treatment,61.5 ± 4.8%
same,Acrosome reacted sperm (%) (Mean ± SD),human sperm [1]; without ionophore treatment,14.5 ± 2.1%
same,Effect on acrosin distribution vs PBS-BSA treated sperm,human sperm [2],no significant effect
same,"Acrosin activity, cells (Mean ± SD)",human sperm [2]; with ionophore treatment,38.5 ± 7.1 μIU/10^6 spermatozoa
same,"Acrosin activity, supernatant (Mean ± SD)",human sperm [2]; with ionophore treatment,52.8 ± 16.2 μIU/10^6 spermatozoa
same,"Acrosin activity, cells (Mean ± SD)",human sperm [2]; without ionophore treatment,76.5 ± 9.1 μIU/10^6 spermatozoa
same,"Acrosin activity, supernatant (Mean ± SD)",human sperm [2]; without ionophore treatment,21.0 ± 14.4 μIU/10^6 spermatozoa
same,"Effect on motility characteristics (velocity, ALH, beat frequency)",human sperm [3],Neither Tβ4 peptide nor the control antibodies affected any motility characteristics
same,Effect on the percentage of motile sperm cells,human sperm [3],No effect
same,ALH (amplitude of lateral head displacement) (Mean ± S.D.),human sperm [3],3.7 ± 0.4
same,Beat Frequency (Mean ± S.D.),human sperm [3],13.1 ± 0.3
same,Linearity (Mean ± S.D.),human sperm [3],4.0 ± 0.6
same,Percent Motility,human sperm [3],76.0 ± 4.3%
same,Velocity (Mean ± S.D.),human sperm [3],58.5 ± 2.6
same,"Ova penetrated, % of control (mean ± SD)",human sperm [4]; [5],102.7 ± 6.5%
same,"Ova penetrated, % of control (mean ± SD)",human sperm [4]; [6],99.7 ± 10.1%
same,"Ova penetrated, % of control (mean ± SD)",human sperm [4]; [7],61.8 ± 27.9%
same,"Ova penetrated, % of control (mean ± SD)",human sperm [4]; [8],31.5 ± 12.2%
